Consider eight compounds from patent US11020462B2, “Methods for treatment of diseases” (SERPIN PHARMA, LLC, priority 2015, dated 2021).

One data set deals with TNF-alpha. The data set can be described thus: LPS challenged mouse model of sepsis, TNF-alpha levels. In kind it is in vivo. The source says: Specifically, in these particular fragments, the three most N-terminal and the two most C-terminal amino acids appear to play a role in the anti-inflammatory properties of the peptides as replacement of them appeared to reduce the capacity of the peptides to reduce TNF-alpha levels in a LPS challenged mouse model of sepsis (see, e.g., PCT/US13/20498; which is incorporated by reference herein in its entirety). Accordingly, in some aspects of all embodiments of the invention the peptides are selected from SP40, SP43, SP46, and SP49 the peptide sequences of which are set forth in Table B.
Table C below presents additional exemplary peptides that were used to reduce TNF-alpha levels in mice subjected to an LPS challenge. Also the peptides with capacity to reduce TNF-alpha levels as described in PCT/US13/20498; which is incorporated by reference herein in its entirety, are contemplated for the compositions, pharmaceutical compositions and methods of use and treatment of inflammatory conditions in the present invention.

The target of another data set is T1, recombinant LRP1 protein (Homo sapiens, UniProt Q07954).
T1 construct: purchased R&D Systems, Minneapolis, Minn
The data set can be described thus: in vitro binding of biotin-peptide to recombinant LRP1 (streptavidin bead pull-down, western blot). Here is the method: An in vitro assay was performed to examine SP163M binding to LRP1. To perform the assay, recombinant LRP1 protein (1 μg/ml) (R&D Systems, Minneapolis, Minn.) was incubated on ice in the presence of biotin-SP163M (1-5 μg/ml) at 4° C. for 1 hour. This mixture was then incubated with 1 mg/ml M280 Streptavidin Dynabeads (Invitrogen, Carlsbad, Calif.) for 1.5 hours at 4° C. Dynabeads were washed in PBS+0.1% Tween20 and boiled in SDS loading buffer for 5 minutes. The supernatants were separated on NuPAGE 4-12% Bis-Tris gels (Invitrogen) and transferred to nitrocellulose membranes. The membranes were probed with anti-LRP1 (LRP-1 Cluster II Affinity Purified Polyclonal Ab, R&D, Minneapolis, Minn.) and incubated overnight at 4° C. The membranes were then washed 3 times with TBS-T and incubated with secondary HRP-coupled anti-goat diluted 1:10,000 in 5% milk TBS-T. The western blots were visualized by chemiluminescence using SuperSignal West Femto Maximum Sensitivity Substrate kit (ThermoScientific) and a Bio Rad Molecular Imager ChemiDoc XRS system (Bio-Rad, Hercules, Calif.).
A general note: Immunoblotting shows a protein as a band on a membrane.

The nature of data set [1]: SP16 pharmacokinetic profile after intravenous injection (LC/MS/MS of plasma). Format: in vivo, rats. The procedure:
The following table provides the results from an assay for SP16's pharmacokinetic profile. In performing the assay, three normal rats were injected intravenously with 5 mg/kg SP16 and the plasma concentration of SP16 established at 8 time points following the injection. […] The assay was executed by Apredica, Boston, Mass.

The target in another data set is T2, hERG (Homo sapiens, UniProt Q12809).
T2 construct: Apredica, Boston, Mass; (contract laboratory that ran the study)
The experiment in a line: cell-based. Format: cell-based.

A further data set concerns 111 human receptors. The data set can be described thus: human receptor panning, GenSEP Explorer panel of 111 in vitro assay targets. Particulars: 111 targets. The source says: In addition, we also performed a profile using human receptor panning. The GenSEP Explorer panel contains 111 in vitro assay targets carefully selected to assess drug/chemical biological activities. Assay categories include GPCRs, Voltage-Gated Ion Channels, Ligand-Gated Ion Channels, Neurotransmitter transporters, Nuclear Receptors and Steroids as well as a diverse set of biochemical targets including phosphodiesterases, kinases and other relevant enzymes.

The subject of a further data set is healthy mouse. The data set can be described thus: cardiac contractility in the healthy mouse (echocardiography, isoproterenol challenge). In kind it is in vivo. To be noted: FIG. 7. The procedure:
To test the effect of SP163M on heart contractility the following study was conducted. […] SP34 is a peptide with a scrambled sequence of SP16 and is used as a control peptide.
Ten-weeks-old ICR mice were treated with SP163M (100 μg/mouse i.p.), the control peptide SP34 (100 μg/mouse) or the vehicle solution. Echocardiography was used to assess left ventricular (LV) fractional shortening at baseline and after 180 minutes.
Cardiac contractility reserve was tested with isoproterenol challenge (10 ng/kg i.p.), measuring the increase in LV fractional shortening within 5′ of treatment. Each group included at least 6 mice.

In the next data set the target is T3, LRP1 (Mus musculus, UniProt Q91ZX7).
T3 construct: from tissue; host or cells: living CD1 mice (heart, in vivo)
The experiment in a line: experimental AMI in mice pretreated with LRP1 blocking antibody. Format: in vivo. To be noted: LRP1 antibody clone 5A6 3 mg/kg 16 hours before surgery; SP163M 100 μg or AAT 60 mg/kg i.p. after reperfusion, FIG. 14. Here is the method:
To examine the whether LRP1 mediates the cardioprotective effect of SP163M, groups of mice were treated with an LRP1 blocking antibody prior to experimental AMI. The resulting infarct size and LV systolic function were measured
Adult out-bred male CD1 mice (10 weeks of age) supplied by Harlan Sprague Dawley (Indianapolis, Ind.) were used in this study. A single operator (S.T.) skilled in coronary artery surgical ligation in mice performed all surgeries. Experimental AMI was induced by transient coronary artery ligation of the left anterior descending coronary artery for 30 minutes to induce ischemia of the anterior wall and the apex (visible as pallor) followed by reperfusion, and leading to an infarct involving approximately 15% of the left ventricle. […]
Infarct size (reported in FIG. 14A) was measured as previously described. […] The infarcted tissue (appearing white) and the viable tissue (bright red) were measured by computer morphometry using Image Pro Plus 6.0 software (Media Cybernetics, Silver Spring, Md.). […]
LV systolic function (reported in FIG. 14B) was determined as well. […] We measured the left ventricular (LV) end-diastolic and end-systolic areas at B-Mode and the LV end-diastolic diameter (LVEDD), LV end-systolic diameters (LVESD) at M-Mode. LV fractional shortening (FS) and LV ejection fraction (EF) were calculated. […]

Data set [2] relates to experimental acute myocardial infarction (AMI) in the mouse. Particulars: AAT at onset of ischemia or at time of reperfusion, cited from earlier work.
Data set [3] relates to inflammatory reaction that occurs after AMI. To be noted: pilot clinical study; cited from earlier work.
[4] abbreviates: rat, in vivo, SP16, IV (5 mg/kg), normal rats.

“And” between values parts separate entries of the source, which are not always exact repeats. Identical values can stand only once. “Also recorded” adds a separate entry of the source. Like-named read-outs stand apart in the source and are kept apart here.

T1 sequence (Q07954 with tags, fused parts or gaps limits assumed, species assumed): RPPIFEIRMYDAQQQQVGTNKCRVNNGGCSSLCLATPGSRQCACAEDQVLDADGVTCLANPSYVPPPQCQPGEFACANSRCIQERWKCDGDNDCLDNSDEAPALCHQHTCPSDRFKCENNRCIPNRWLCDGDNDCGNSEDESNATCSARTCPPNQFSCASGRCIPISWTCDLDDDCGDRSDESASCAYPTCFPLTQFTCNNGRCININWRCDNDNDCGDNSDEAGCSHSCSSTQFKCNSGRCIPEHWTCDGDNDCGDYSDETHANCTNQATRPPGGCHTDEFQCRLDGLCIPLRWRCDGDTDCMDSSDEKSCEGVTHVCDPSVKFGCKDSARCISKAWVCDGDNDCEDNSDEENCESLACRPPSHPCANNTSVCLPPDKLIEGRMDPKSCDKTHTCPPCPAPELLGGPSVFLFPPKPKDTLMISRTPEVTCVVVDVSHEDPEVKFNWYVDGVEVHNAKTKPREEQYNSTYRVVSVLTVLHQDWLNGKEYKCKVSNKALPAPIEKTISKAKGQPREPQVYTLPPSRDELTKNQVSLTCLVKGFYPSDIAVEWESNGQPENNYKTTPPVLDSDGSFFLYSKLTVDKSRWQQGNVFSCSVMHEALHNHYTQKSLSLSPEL
T2 sequence (Q12809 whole entry): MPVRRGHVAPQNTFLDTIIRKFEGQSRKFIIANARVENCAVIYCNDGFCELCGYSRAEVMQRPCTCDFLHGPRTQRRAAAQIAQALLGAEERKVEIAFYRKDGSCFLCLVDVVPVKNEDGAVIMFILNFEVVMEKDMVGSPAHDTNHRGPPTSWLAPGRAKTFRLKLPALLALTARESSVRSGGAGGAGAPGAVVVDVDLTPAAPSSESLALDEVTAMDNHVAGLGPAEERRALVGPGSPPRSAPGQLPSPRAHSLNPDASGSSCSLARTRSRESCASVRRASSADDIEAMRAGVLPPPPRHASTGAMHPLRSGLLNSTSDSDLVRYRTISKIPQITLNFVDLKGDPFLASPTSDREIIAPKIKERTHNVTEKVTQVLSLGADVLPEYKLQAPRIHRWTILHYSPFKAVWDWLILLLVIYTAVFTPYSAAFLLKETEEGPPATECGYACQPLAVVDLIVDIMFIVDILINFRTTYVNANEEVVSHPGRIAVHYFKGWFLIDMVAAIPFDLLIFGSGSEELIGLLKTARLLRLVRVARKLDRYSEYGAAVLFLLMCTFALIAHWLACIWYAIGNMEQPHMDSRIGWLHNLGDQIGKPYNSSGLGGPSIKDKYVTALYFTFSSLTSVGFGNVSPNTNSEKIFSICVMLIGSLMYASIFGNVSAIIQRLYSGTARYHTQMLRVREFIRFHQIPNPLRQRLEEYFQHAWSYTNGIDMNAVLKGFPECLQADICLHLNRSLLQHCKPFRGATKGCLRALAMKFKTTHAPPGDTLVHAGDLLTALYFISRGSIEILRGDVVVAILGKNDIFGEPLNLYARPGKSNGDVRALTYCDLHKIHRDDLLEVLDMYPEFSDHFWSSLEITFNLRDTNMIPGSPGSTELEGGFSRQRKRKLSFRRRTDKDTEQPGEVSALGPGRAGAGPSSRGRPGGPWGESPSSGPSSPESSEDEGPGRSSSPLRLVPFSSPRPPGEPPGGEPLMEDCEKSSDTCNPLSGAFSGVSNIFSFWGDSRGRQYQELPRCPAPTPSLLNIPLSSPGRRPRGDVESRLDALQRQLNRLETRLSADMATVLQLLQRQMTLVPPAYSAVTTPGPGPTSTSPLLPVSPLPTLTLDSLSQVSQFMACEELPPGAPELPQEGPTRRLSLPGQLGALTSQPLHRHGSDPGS

Consider “V K F N K P F V F A A A E Q N T K (VKFNKPFVFAAAEQNTK; listed as Homo sapiens) [SP46]”, for which the anti-inflammatory effect result with TNF-alpha is “particularly good anti-inflammatory effect”.

Consider “V K F N K P A A A L M I E Q N T K (VKFNKPAAALMIEQNTK; listed as Homo sapiens) [SP43]”, for which the anti-inflammatory effect result with TNF-alpha is “particularly good anti-inflammatory effect”.

Consider “V K F N K P F V F L M I A A A T K (VKFNKPFVFLMIAAATK; listed as Homo sapiens) [SP49]”, for which the anti-inflammatory effect entry with TNF-alpha is given as “particularly good anti-inflammatory effect”.

Take “V K F A A A F V F L M I E Q N T K (VKFAAAFVFLMIEQNTK; listed as Homo sapiens) [SP40]”: the “binding to LRP1 (statement without method)” value with recombinant LRP1 protein was “bind LRP1”. Also, the anti-inflammatory effect entry in the data set on TNF-alpha is given as “particularly good anti-inflammatory effect”.

Regarding “A A A N K P F V F L M I E Q N T K (AAANKPFVFLMIEQNTK; listed as Homo sapiens) [SP37]”, the “binding to LRP1 (statement without method)” value with recombinant LRP1 protein is listed as “bind LRP1”.

As a reminder, the Cmax is the highest concentration seen after dosing. As usually defined, the MRT inf is a mean duration of stay, worked out from the concentration-time curve. Broadly, the AUC is the area under the concentration-time curve, a measure of exposure. The term IC50 denotes the concentration that inhibits the measured activity by half. Lower therefore signals inhibition by little substance. Turning to `CC[C@H](C)[C@H](NC(=O)[C@H](CCSC)NC(=O)[C@H](CC(C)C)NC(=O)[C@H](Cc1ccccc1)NC(=O)[C@@H](NC(=O)[C@H](Cc1ccccc1)NC(=O)[C@@H]1CCCN1C(=O)[C@H](CCCCN)NC(=O)[C@H](CC(N)=O)NC(=O)[C@H](Cc1ccccc1)NC(=O)[C@H](CCCCN)NC(=O)[C@@H](N)C(C)C)C(C)C)C(=O)N[C@@H](CCC(=O)O)C(=O)N[C@@H](CCC(N)=O)C(=O)N[C@@H](CC(N)=O)C(=O)N[C@H](C(=O)N[C@@H](CCCCN)C(=O)O)[C@@H](C)O` [SP16], the “Last Time point” value in data set [1] (SP16, IV (5 mg/kg), normal rats) is listed as 8.0. The highest concentration (Cmax) in [1] (rat, in vivo, iv, 5 mg/kg intravenously, three normal rats) stood at 2500 ng/mL. Further, the half-life in data set [1] (rat, in vivo, iv, 5 mg/kg intravenously, three normal rats, read-out: T1/2 (half-life) (converted)) was 1.9 h. In addition, in data set [1] (setting [4]), the C0 came out at 2500 ng/mL and the MRT inf worked out at 1.1 h. The AUC in data set [1] (rat, in vivo, SP16, IV (5 mg/kg), normal rats, read-out: AUC to Last) amounted to 900 ng·h/mL. Further, the clearance in [1] (rat, in vivo, SP16, IV (5 mg/kg), normal rats, read-out: Total CL (converted)) is 2.33 mL/min and 9.7 mL/min/kg. Further, the Vd in data set [1] (rat, in vivo, SP16, IV (5 mg/kg), normal rats, read-out: Vss) amounted to 0.149 L. Besides, the Vd in [1] (rat, plasma, SP16, IV (5 mg/kg), normal rats, read-out: V) was 0.374 L. Moreover, the IC50 against hERG is greater than 25 µM. In addition, the “comment: concentration-dependent inhibition of hERG observed or not” value on hERG (0.008-25 μM) is “No concentration-dependent”. For the same compound, on hERG (hERG, 0.008 μM), the activity at 0.008 µM is 89%. Besides, at hERG (hERG, 0.04 μM), the activity at 0.04 µM worked out at 95%. The same compound had an activity at 0.2 µM at hERG (hERG, 0.2 μM) of 95%. The compound further gave an activity at 1 µM at hERG (hERG, 1 μM) of 78%. In addition, the activity at 5 µM at hERG (hERG, 5 μM) is 88%. The compound also came in with an activity at 25 µM on hERG (hERG, 25 μM) of 89%. Moreover, the “inhibition of hERG (in words)” value at hERG (up to 25 μM) is “does not impact hERG activity; also recorded: does not inhibit hERG”. Also, the “effect on the human receptor panel (in words)” value with 111 human receptors was “not able to identify any hits; also recorded: no effect on 111 human receptors”. The heart contractility entry in the data set with healthy mouse is recorded as “does not affect heart contractility”.

Turning to “AAT: plasma derived alpha-1 antitrypsin (AAT) (Aralast N P, Baxter); circulating serum protein, parent of SP16”, in the data set with LRP1, the “protective effects (infarct size, LV systolic function) after LRP1 blocking antibody” value is recorded as “eliminates the cardioprotective effects; also recorded: eliminated the protective effects”. Also, the infarct size entry in data set [2] (vs albumin, FIG. 3) was “significantly smaller infarct size; also recorded: reduces infarct size”. The “cardiac healing and remodeling” value in data set [2] was “more favorable cardiac healing and remodeling”. The “safety and efficacy in blocking the inflammatory reaction after AMI” value in data set [3] is “preliminary safety and efficacy”.

For “V K F N K P F V F L M I E Q A A A (VKFNKPFVFLMIEQAAA; listed as Homo sapiens) [SP51]”, the “binding to LRP1 (statement without method)” value with recombinant LRP1 protein was “bind LRP1”.
